In brackets after ≈: the same amount, converted by molar mass.
Settings: buffer; pH 7.4; 200.0 µM

SMILES | solubility kinetic
Cc1cc(C)c2sc(C)[n+](CCCS(=O)(=O)[O-])c2c1 | 38.8 µg/mL (≈ 130 µM)
Cc1ccccc1C(=O)NC(C(N)=O)P(=O)(OC(C)C)OC(C)C (stereo not given) | > 53.5 µg/mL
CC(NC(=O)C(C)N1C(=O)c2cccc([N+](=O)[O-])c2C1=O)c1ccccc1 (stereo not given) | 28.3 µg/mL (≈ 77 µM)
O=C1CSc2ccc(C(=O)NCc3ccccn3)cc2N1 | > 44.9 µg/mL
CC(NC(=O)c1ccccc1)C(=O)N/N=C/c1ccccc1 (stereo not given) | > 44.3 µg/mL
NC(N)=Nc1nc(-c2ccccc2)c2cc(F)ccc2n1 | > 42.2 µg/mL
CCN(CC(=O)Nc1c(F)cccc1F)C(=O)c1cnccn1 | > 48 µg/mL
O=C1C(Cl)=C(NCCN2CCOCC2)C(=O)c2ccccc21 | > 48.1 µg/mL
O=C(CN1CCOCC1)NNC(=O)c1ccc([N+](=O)[O-])cc1 | > 46.2 µg/mL
Cc1cc([N+](=O)[O-])nn1CC(=O)N(C)C1CCCCC1 | > 42 µg/mL
Cc1cc(CNC(=O)c2cccc([N+](=O)[O-])c2)c2ccccc2n1 | 2.8 µg/mL (≈ 8.71 µM)
CC1(C)C(C(=O)O)N2C(=O)C(NC(=O)Cc3ccccc3)C2S1=O.O (stereo not given) | 38.7 µg/mL
Cc1nc2ccc(S(=O)(=O)N3CCCCC3)cc2s1 | 21.4 µg/mL (≈ 72.2 µM)
COc1cc(/C=C/C(=O)O)cc(S(=O)(=O)N2CCCc3ccccc32)c1OC | 45.3 µg/mL (≈ 112 µM)
CC1C2(C)OCC(C#N)(C(=N)O2)C1(C#N)C#N (stereo not given) | > 34.5 µg/mL
COc1ccc(C2c3sc(=O)[nH]c3SCC2C(N)=O)cc1 (stereo not given) | 40 µg/mL (≈ 124 µM)
O=C(COC(=O)c1ccc(O)cc1O)Nc1ccc(Cl)cn1 | 46.5 µg/mL (≈ 144 µM)
CCOc1ccc(C2=CSC3=NCCN23)cc1Cl | 25 µg/mL (≈ 89 µM)
O=C(/C=C/c1ccco1)N1CCN(S(=O)(=O)c2cccc([N+](=O)[O-])c2)CC1 | 28.1 µg/mL (≈ 71.8 µM)
O=C1NC2(CCCCCC2)C(=O)N1Cc1ccc(Br)cc1 | 5.2 µg/mL (≈ 14.8 µM)
COc1ccc(CC(=O)NCC(C)(C)N2CCOCC2)cc1 | > 46 µg/mL
CCOC(=O)C(O)(c1ccc(NC(=O)NC)cc1)C(F)(F)F (stereo not given) | > 48 µg/mL
CC(=O)Nc1ccc(NC(=O)C(C)OC(=O)c2ccc(S(=O)(=O)N3CCCCC3)cc2)cc1 (stereo not given) | 6.4 µg/mL (≈ 13.5 µM)
CCCCC(C(=O)NC(C)c1ccccc1)C(=O)NC(C)c1ccccc1 (stereo not given) | 1.5 µg/mL (≈ 4.09 µM)
CCc1cc(C(=O)c2ccc(OC)cc2)c(NC(=O)CCC(=O)O)s1 | > 54.2 µg/mL
Cc1ccc(C(C)C)cc1S(=O)(=O)NCc1ccccn1 | > 45.7 µg/mL

SMILES | solubility kinetic
O=C(c1cccc(Oc2ccc([N+](=O)[O-])cc2)c1)N1CCOCC1 | > 49.2 µg/mL
COc1ccc(C(C)=O)cc1COc1cccnc1[N+](=O)[O-] | 5.1 µg/mL (≈ 16.9 µM)
COc1ccc(C(=O)O/N=C(\N)c2cccc(C)c2)cc1OC | 14.7 µg/mL (≈ 46.8 µM)
COc1ccc2oc(=O)c(C(=O)Nc3ccccc3C)cc2c1 | 2.3 µg/mL (≈ 7.44 µM)
Cn1c(C(=O)N2CCOCC2)cc2c(=O)n3ccccc3nc21 | > 46.8 µg/mL
CCSc1nnc(NC(=O)CN2C(=O)NC3(CCCC3)C2=O)s1 | > 53.3 µg/mL
COC(=O)c1cc(COC(=O)CNC(=O)c2ccc(Br)cc2)oc1C | 6.8 µg/mL (≈ 16.6 µM)
COn1c(=O)c(-c2cccc(Br)c2)[n+]([O-])c2ccccc21 | 4.9 µg/mL (≈ 14.1 µM)
CCC(C)c1ccc(NC(=S)N2CCN(c3ccccn3)CC2)cc1 (stereo not given) | 2.6 µg/mL (≈ 7.33 µM)
O=C(COC(=O)C1(c2cccc(F)c2)CCCC1)NCc1cccs1 | 16.2 µg/mL (≈ 44.8 µM)
Cc1cc(C(=O)NCc2ccco2)sc1C | > 35.3 µg/mL
COc1ccc2c(C)nc(Nc3nc(-c4ccccc4)cc(=O)[nH]3)nc2c1 | < 0.2 µg/mL
Cc1ccc2[nH]c(C(=O)N3CCN(C=O)CC3)cc2c1 | > 40.7 µg/mL
O=C(Nc1ccc(F)cc1)c1cc(-c2ccccc2)no1 | < 0.3 µg/mL
COCCCNC(=S)N1CCC(C(=O)c2ccc(Cl)cc2)CC1 | > 53.2 µg/mL
Cl.c1ccc(CNCc2ccco2)cc1 | 33.5 µg/mL
Cn1c(CN2CCN(CCO)CC2)c(C#N)c2ccccc21 | > 44.8 µg/mL
Cc1cccc(NC(=O)NC(=O)c2ccccc2)n1 | 0.8 µg/mL (≈ 3.13 µM)
O=C(COC(=O)c1cccs1)NCCc1ccc(F)cc1 | 42.2 µg/mL (≈ 137 µM)
CCOC(=O)C1(C(F)(F)F)N=C(c2ccccc2F)OC(N(C)C)=N1 (stereo not given) | 42.2 µg/mL (≈ 117 µM)
CCOc1ccc(Nc2cc(C)nc3ccc(C)cc23)cc1 | 40 µg/mL (≈ 137 µM)
Cc1cc(SCC#N)nc2ccccc12 | 14.6 µg/mL (≈ 68.1 µM)
CCN(c1ccccc1)S(=O)(=O)c1ccc2c(c1)OCCO2 | 26.3 µg/mL (≈ 82.3 µM)
CN1C(=O)CC(c2ccccc2)Nc2ccccc21.Cl (stereo not given) | > 43.3 µg/mL
COc1ccc(-n2c(C)nnc2SCC(=O)NC2CC2)cc1 | > 47.8 µg/mL
Cc1cccc(N/C=C/C(=O)c2ccc(Cl)cc2)c1 | < 0.6 µg/mL

SMILES | solubility kinetic
O=[N+]([O-])c1ccc(-c2cnc3ccccc3n2)cc1 | 0.6 µg/mL (≈ 2.39 µM)
CN1CCC(OC(=O)c2ccco2)CC1.Cl | > 36.9 µg/mL
CSc1ccc(C2NC(=O)CCC2[N+](=O)[O-])cc1 (stereo not given) | > 39.9 µg/mL
COc1cccc(-c2cc(C(=O)NC3CC3)c3ccccc3n2)c1 | 5.6 µg/mL (≈ 17.6 µM)
CCOC(=O)c1cnc(Cc2ccccc2)[nH]c1=O | 37.3 µg/mL (≈ 144 µM)
CN(C)C(=O)Oc1ccc2c(c1)O/C(=C\c1ccc(Cl)cc1)C2=O | 0.9 µg/mL (≈ 2.62 µM)
Cc1ccc(OCCC(=O)Nc2ccc3c(c2)OCO3)cc1 | 14.8 µg/mL (≈ 49.4 µM)
Cc1cc(C)c(C#N)c(SCC(=O)Nc2cc(C)on2)n1 | 2.1 µg/mL (≈ 6.95 µM)
O=S(=O)(O)c1cnccc1Nc1cccc(C(F)(F)F)c1 | > 47.7 µg/mL
Cc1ccc(Cn2c(N3CCNCC3)nc3c2c(=O)[nH]c(=O)n3C)cc1 | 51.2 µg/mL (≈ 144 µM)
COc1ccc(NC(=O)CN2CCN(C(C)=O)CC2)cc1S(=O)(=O)N1CCOCC1 | > 66.1 µg/mL
CC(=O)Nc1ccc(C(=O)COC(=O)Cc2ccsc2)c(F)c1 | > 50.3 µg/mL
Fc1ccc(CO/N=C2\CCCc3nonc32)cc1 | 3 µg/mL (≈ 11.5 µM)
COc1ccc(S(=O)(=O)N2CCNC(=O)CC2)cc1 | 35.1 µg/mL (≈ 123 µM)
COc1ccc(S(=O)(=O)N2CC(=O)Nc3ccccc32)cc1Cl | > 52.9 µg/mL
O=C(CN1CCCCC1)Nc1nc(-c2ccc(F)c(F)c2)cs1 | 2 µg/mL (≈ 5.93 µM)
COc1cc(-n2c(C)nc3cc(C(=O)O)ccc32)cc(OC)c1OC | > 51.4 µg/mL
CC(C)CC1NC(=O)N(CC(=O)Nc2cc(S(=O)(=O)N3CCOCC3)ccc2Cl)C1=O (stereo not given) | 8.2 µg/mL (≈ 17.3 µM)
CC(c1ccccc1)C(CC(=O)O)C(=O)Nc1ccc(Cl)c(Cl)c1 (stereo not given) | 46 µg/mL (≈ 126 µM)
O=C(NCc1cccc(Cl)c1)NC(=O)c1csc([N+](=O)[O-])c1 | < 0.2 µg/mL
Cc1cc(C(=O)Nc2ccc(Cl)cc2)c2ccccc2n1 | < 0.3 µg/mL
CCOC(=O)c1cc(-c2csc(Nc3ccccc3Cl)n2)on1 | 0.6 µg/mL (≈ 1.72 µM)
COc1ccc(C=C(C#N)C#N)c(CSc2ccccn2)c1 | 2.1 µg/mL (≈ 6.83 µM)
Cc1ccc(C(=O)NC(C)c2ccc(-n3ccnc3)cc2)o1 (stereo not given) | 40.8 µg/mL (≈ 138 µM)
COc1cccc2c(O)c(-c3ccccc3)c(=O)[nH]c12 | > 40.1 µg/mL
O=C1C(Cc2cnc[nH]2)NC(=S)N1c1ccccc1 (stereo not given) | 37.4 µg/mL (≈ 137 µM)

Second part, the compound after the results:

solubility kinetic | SMILES
2.9 µg/mL (≈ 6.55 µM) | COc1cc(C(=O)Nc2cc(OC)c(OC)c(OC)c2)ccc1OCc1c(C)noc1C
6.7 µg/mL (≈ 16.8 µM) | O=C(Nc1ccc(Br)cc1)C1CC(c2c(F)cccc2Cl)=NO1 (stereo not given)
31.6 µg/mL (≈ 111 µM) | COc1ccc2oc(C(=O)NCc3ccco3)c(C)c2c1
4.2 µg/mL (≈ 13.8 µM) | O=C(COc1ccc(-c2ccccc2)cc1)Nc1cccnc1
44.2 µg/mL (≈ 146 µM) | Cc1cc(C)cc(NC(=O)CS(=O)(=O)c2ccccc2)c1
< 0.3 µg/mL | CCOC(=O)c1sc(=NC(=O)c2cccs2)n(C)c1C
22.4 µg/mL (≈ 78.2 µM) | CCOC(=O)c1cc(S(=O)(=O)N2CCCC2)cn1C
5.9 µg/mL (≈ 18.8 µM) | COc1cc(C2NC(=O)c3ccccc3O2)ccc1OC(C)C (stereo not given)
9 µg/mL (≈ 27.4 µM) | Cc1cccc(OCC2Cn3c(nc4c3c(=O)[nH]c(=O)n4C)O2)c1 (stereo not given)
9.9 µg/mL (≈ 23.7 µM) | COc1ccc(S(=O)(=O)N2CCOCC2)cc1NC(=O)CC(C)c1ccccc1 (stereo not given)
28.3 µg/mL (≈ 93.5 µM) | Cc1ccc(NC(=O)C(c2ccccc2)N(C)C)cc1Cl (stereo not given)
40.4 µg/mL (≈ 120 µM) | O=C(c1ccc(Cl)c(Cl)c1)N1CCN(c2ccccn2)CC1
47 µg/mL (≈ 139 µM) | CSc1ncc(C(=O)Nc2ccc(Br)cn2)c(C)n1
> 50.6 µg/mL | CCCN1CCN(S(=O)(=O)c2ccc3c(c2)CCC(=O)N3)CC1
34.6 µg/mL (≈ 110 µM) | Cc1ccsc1C(=O)OCC(=O)N1CCc2ccccc2C1
0.5 µg/mL (≈ 1.76 µM) | Cc1ccccc1OCCn1c(=S)[nH]c2ccccc21
> 43.4 µg/mL | Cn1c(SCC(=O)NC2CC2)nnc1-c1ccccn1
> 74.1 µg/mL | O=C1CN(C(=O)COC(=O)[C@@H]2CC(O)CN2S(=O)(=O)c2ccc(Cl)cc2)c2ccccc2N1 (stereo not given in full)
5.1 µg/mL (≈ 16.1 µM) | Cc1c(Cl)ccc(S(=O)(=O)Nc2cccnc2)c1Cl

solubility kinetic | SMILES
> 41.7 µg/mL | CN(C)C(=O)c1cc(C(=O)c2ccc(F)cc2F)c[nH]1
9.4 µg/mL (≈ 25.2 µM) | O=C(Cc1ccc(F)cc1)N1CCN=C1SCc1cccc([N+](=O)[O-])c1
4.9 µg/mL (≈ 12.2 µM) | Cc1ccc(F)cc1NC(=O)N1CCN(C2c3ccccc3-c3ccccc32)CC1
33.7 µg/mL (≈ 91.7 µM) | CCN(CC)CCNC(=O)c1ccc(-n2c(C)cc3c2CCCC3=O)cc1
> 51.4 µg/mL | CC(C)(C)OC(=O)NCCC(=O)N/N=C/c1ccc2ncccc2c1
> 50.3 µg/mL | COc1cccc(C(=O)c2c[nH]c(C(=O)NCc3cccnc3)c2)c1
> 47.2 µg/mL | COc1ccccc1N1CCN(C(=O)c2cc(C)oc2C)CC1
29.1 µg/mL (≈ 112 µM) | CC(=O)NC(C(=O)c1ccccc1)N1CCCCC1 (stereo not given)
2.8 µg/mL (≈ 6.08 µM) | O=C(Nc1cc(S(=O)(=O)N2CCOCC2)ccc1Cl)c1cc([N+](=O)[O-])ccc1Cl
> 44 µg/mL | COCCn1c(N2CCCC2)nc2c1c(=O)[nH]c(=O)n2C
> 46.4 µg/mL | COCCNC(=O)c1ccc2c(c1)ncn2-c1cccc(C)c1
> 49.4 µg/mL | COc1cc2c(cc1NC(=O)COCC(=O)O)oc1ccccc12
7.3 µg/mL (≈ 23.8 µM) | COc1ccc2[nH]c3c(=O)n(Cc4ccncc4)cnc3c2c1
17 µg/mL (≈ 53.9 µM) | Cc1ccc(C(OC(=O)c2ccco2)C(=O)NC(C)(C)C)cc1 (stereo not given)
> 41.6 µg/mL | O=C(c1cccc2c1-c1ccccc1C2)N1CCCCC1
45.4 µg/mL (≈ 139 µM) | Cn1c(C(=O)N[C@@H](C(=O)O)c2ccccc2)cc2cc(F)ccc21
11.9 µg/mL (≈ 34.5 µM) | CN(Cc1c(F)cccc1Cl)C(=O)CCc1c[nH]c2ccccc12
0.3 µg/mL (≈ 1.06 µM) | O=[N+]([O-])c1cccnc1NCCc1c[nH]c2ccccc12

Reference: PubChem BioAssay AID1996
